According to ChEMBL document CHEMBL1147390, “The structure of palominol by interpretation of two-dimensional NMR shift correlation experiments: isolation and structure determination of isopalominol” (J Nat Prod, 1993):
Values after ≈ are worked out from the molar mass of the structure shown. Active and inactive are the calls of the source. No cut-off for these calls is given here.

Assays:
Staphylococcus aureus [1] = assay: Antimicrobial activity against Staphylococcus aureus at 10 ug/disk; type: functional, organism-based
Escherichia coli [2] = assay: Antimicrobial activity against Escherichia coli at 5 ug/disk; type: functional, organism-based
Escherichia coli [3] = assay: Antimicrobial activity against Escherichia coli at 10 ug/disk; type: functional, organism-based
Escherichia coli [4] = assay: Antimicrobial activity against Escherichia coli at 1 ug/disk; type: functional, organism-based
HCT-116 = assay: Cytotoxicity against human HCT116 cells; type: functional, cell-based
Staphylococcus aureus [5] = assay: Antimicrobial activity against Staphylococcus aureus at 5 ug/disk; type: functional, organism-based
Staphylococcus aureus [6] = assay: Antimicrobial activity against Staphylococcus aureus at 1 ug/disk; type: functional, organism-based

Compound	Activity (Staphylococcus aureus [1])	Activity (Escherichia coli [2])	Activity (Escherichia coli [3])	Activity (Escherichia coli [4])	IC50 (HCT-116)	Activity (Staphylococcus aureus [5])	Activity (Staphylococcus aureus [6])
CC(C)=C1[C@H]2CC/C(C)=C/CC/C(C)=C/C[C@]2(C)C[C@@H]1O (relative stereo)	inactive	inactive	inactive	inactive	9 µg/mL (≈ 31.2 µM)	inactive	inactive
CC(C)=C1C(=O)C[C@@]2(C)C/C=C(\C)CC/C=C(\C)CC[C@H]12 [DOLABELLANE]	inactive	inactive	inactive	inactive	10 µg/mL (≈ 34.9 µM)	inactive	inactive
C/C1=C\C[C@]2(C)CC=C(C(C)(C)O)[C@H]2CC/C(C)=C/CC1 [PALOMINOL]	inactive	inactive	inactive	inactive	10 µg/mL (≈ 34.7 µM)	inactive	inactive
CC(C)=C1[C@H](O)C[C@@]2(C)C/C=C(\C)CC/C=C(\C)CC[C@H]12 (relative stereo) [ISOPALOMINOL]	inactive	inactive	inactive	inactive	30 µg/mL (≈ 104 µM)	inactive	inactive
